Drawing on patent US11648254B2 (Kumquat Biosciences Inc., priority 2021, dated 2023), this text covers IC50 for 16 compounds.

Read-outs that look alike come from different tables or passages of the source.

The term IC50 denotes the concentration that gives 50% inhibition.

Test [1] has as its system NCI-H1975 cells (EGFR T790M L858R). Briefly: EGFR-SOS cellular inhibition assay (CellTiter-Glo, 3D). It counts as cell-based. As to conditions: Homo sapiens.
In a further test the target is SOS1 (Homo sapiens (Human), UniProt Q07889). Briefly: Ras-SOS interaction assay (HTRF). It counts as biochemical. A general note: In TR-FRET formats the signal depends on donor and acceptor labels being close together.
The test system of test [2] is MIA PaCa-2 cells (K-Ras G12C). The experiment in a line: Ras-SOS cellular growth inhibition assay (CellTiter-Glo, 3D). In kind it is cell-based. As to conditions: Homo sapiens. A digest of the protocol: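 MIA PaCa-2 cells grown in ultra-low-attachment plates (3D) in DMEM/Ham's F12 with 10% FCS and 2.5% horse serum, treated the day after seeding with a 9-point 3-fold compound series for about 5 days. Viability by CellTiter-Glo luminescence; IC50 from four-parameter fit.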

Where [3] appears, read: 120 h, NCI-H1975, 3D proliferation, about 5 days, read-out: Bio-Cell-Prolif-3D (H1975 IC50).
[4] abbreviates: NCI-H1975, EGFR T790M L858R, read-out: IC50 in inhibiting growth of NCI-H1975 cell line.
Setting [5] is: K-RasG13D utilized, read-out: IC50 inhibition of SOS.
Where [6] appears, read: K-RasG13D, read-out: IC50 value against SOS1.
[7] abbreviates: MIA PaCa-2, 120 h, MIA PaCa-2, 3D proliferation, about 5 days, read-out: Bio-Cell-Prolif-3D (MiaPaca2 IC50).
Setting [8] is: MIA PaCa-2, MIA PaCa-2, read-out: IC50 in inhibiting MIA PaCa-2 cell growth.

SOS1, sequence (Q07889 564-1049): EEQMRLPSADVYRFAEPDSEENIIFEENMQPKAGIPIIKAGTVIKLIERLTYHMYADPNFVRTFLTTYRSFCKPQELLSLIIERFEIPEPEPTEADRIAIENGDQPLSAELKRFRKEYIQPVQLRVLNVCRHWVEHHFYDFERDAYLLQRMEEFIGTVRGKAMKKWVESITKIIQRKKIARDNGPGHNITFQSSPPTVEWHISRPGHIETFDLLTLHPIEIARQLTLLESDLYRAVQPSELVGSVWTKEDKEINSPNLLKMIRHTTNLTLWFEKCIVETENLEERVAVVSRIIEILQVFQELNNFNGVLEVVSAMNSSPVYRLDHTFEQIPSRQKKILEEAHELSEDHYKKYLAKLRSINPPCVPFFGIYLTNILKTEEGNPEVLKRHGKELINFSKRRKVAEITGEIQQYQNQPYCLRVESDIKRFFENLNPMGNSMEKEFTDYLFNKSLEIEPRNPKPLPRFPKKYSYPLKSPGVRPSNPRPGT

`COc1nc2nc(OC[C@H]3CCCN3C)nc(N[C@H](C)c3cccc(C(F)F)c3F)c2cc1C1(C#N)CC1` [Compound 270, 1-(4-(((R)-1-(3-(difluoromethyl)-2-fluorophenyl)ethyl)amino)-7-methoxy-2-(((R)-1-methylpyrrolidin-2-yl)methoxy)pyrido [2,3-d]pyrimidin-6-yl)cyclopropane-1-carbonitrile]: the IC50 is not above 1000 nM in test [1] (setting [3]); less than 500 nM in test [1] (setting [4]); less than 100 nM on SOS1 (setting [5]); less than 50 nM at SOS1 (setting [6]); not above 1000 nM in test [2] (setting [7]); less than 500 nM in test [2] (setting [8]).
Turning to `Cc1nc(N[C@H](C)c2cccc(C(F)(F)F)c2C)c2cc(C3(C#N)CC3)c(N3CCN(C(C)C)CC3)nc2n1` [Compound 178, (R)-1-(7-(4-isopropylpiperazin-1-yl)-2-methyl-4-((1-(2-methyl-3-(trifluoromethyl)phenyl)ethyl)amino)pyrido[2,3-d]pyrimidin-6-yl)cyclopropane-1-carbonitrile], the IC50 in test [1] (setting [3]) is 1000 to 10000 nM; at SOS1 (setting [5]), less than 100 nM; on SOS1 (setting [6]) it was less than 50 nM; in test [2] (setting [7]), not above 1000 nM; in test [2] (setting [8]) it was less than 500 nM.
Consider `COc1nc2nc(C)nc(N[C@H](C)c3cccc(C(F)(F)CO)c3)c2cc1N1CCN(C(C)C)CC1` [Compound 345, (R)-2,2-difluoro-2-(3-(1-((6-(4-isopropylpiperazin-1-yl)-7-methoxy-2-methylpyrido[2,3-d]pyrimidin-4-yl)amino)ethyl)phenyl)ethan-1-ol], for which the IC50 is not above 1000 nM in test [1] (setting [3]); less than 500 nM in test [1] (setting [4]); less than 100 nM at SOS1 (setting [5]); less than 50 nM on SOS1 (setting [6]); not above 1000 nM in test [2] (setting [7]); less than 500 nM in test [2] (setting [8]).
On to `Cc1nc(N[C@H](C)c2cccc(C(F)F)c2F)c2cc(C3CCS(=O)(=O)CC3)c(OCCO)nc2n1` [Compound 137, (R)-4-(4-((1-(3-(difluoromethyl)-2-fluorophenyl)ethyl)amino)-7-(2-hydroxyethoxy)-2-methylpyrido[2,3-d]pyrimidin-6-yl)tetrahydro-2H-thiopyran 1,1-dioxide], for which the IC50 in test [1] (setting [3]) is not above 1000 nM; on SOS1 (setting [5]) it was less than 100 nM; on SOS1 (setting [6]), less than 50 nM; in test [2] (setting [7]), not above 1000 nM; in test [2] (setting [8]) it was less than 500 nM.
On to `COc1nc2nc(C)nc(N[C@H](C)c3cccc(C(F)(F)CCC4CN(C)C4)c3F)c2cc1C1(C#N)CC1` [Compound 177, (R)-1-(4-((1-(3-(1,1-difluoro-3-(1-methylazetidin-3-yl)propyl)-2-fluorophenyl)ethyl)amino)-7-methoxy-2-methylpyrido[2,3-d]pyrimidin-6-yl)cyclopropane-1-carbonitrile], for which the IC50 was not above 1000 nM in test [1] (setting [3]); less than 500 nM in test [1] (setting [4]); less than 100 nM on SOS1 (setting [5]); less than 50 nM at SOS1 (setting [6]); not above 1000 nM in test [2] (setting [7]); less than 500 nM in test [2] (setting [8]).
With `Cc1c([C@@H](C)Nc2ncnc3nc(Cl)c(C4CCN(C(C)C)CC4)cc23)cccc1C(F)(F)F` [Compound 385, (R)-7-chloro-6-(1-isopropylpiperidin-4-yl)-N-(1-(2-methyl-3-(trifluoromethyl)phenyl)ethyl)pyrido [2,3-d]pyrimidin-4-amine], the IC50 in test [1] (setting [3]) was not above 1000 nM; in test [1] (setting [4]), less than 500 nM; at SOS1 (setting [5]) it was less than 100 nM; on SOS1 (setting [6]), less than 50 nM; in test [2] (setting [7]), not above 1000 nM; in test [2] (setting [8]), less than 500 nM.
As for `COc1nc2nc(C)nc(N[C@H](C)c3cccc(CC(F)F)c3F)c2cc1N1CCN(C)CC1` [Compound 149, (R)-N-(1-(3-(2,2-difluoroethyl)-2-fluorophenyl)ethyl)-7-methoxy-2-methyl-6-(4-methylpiperazin-1-yl)pyrido[2,3-d] pyrimidin-4-amine], the IC50 in test [1] (setting [3]) is not above 1000 nM; in test [1] (setting [4]) it was less than 500 nM; at SOS1 (setting [5]), less than 100 nM; on SOS1 (setting [6]), less than 50 nM; in test [2] (setting [7]), not above 1000 nM; in test [2] (setting [8]), less than 500 nM.
For the compound `COc1nc2nc(C)nc(N[C@H](C)c3cccc(C(F)(F)CO)c3F)c2cc1C1(C#N)CC1` [Compound 206, (R)-1-(4-((1-(3-(1,1-difluoro-2-hydroxyethyl)-2-fluorophenyl)ethyl)amino)-7-methoxy-2-methylpyrido[2,3-d]pyrimidin-6-yl)cyclopropane-1-carbonitrile], the IC50 in test [1] (setting [3]) was not above 1000 nM; in test [1] (setting [4]), less than 500 nM; at SOS1 (setting [5]), less than 100 nM; on SOS1 (setting [6]), less than 50 nM; in test [2] (setting [7]), not above 1000 nM; in test [2] (setting [8]), less than 500 nM.
As to `Cc1nc(N[C@H](C)c2cccc(C(F)(F)F)c2C)c2cc(C3CCS(=O)(=O)CC3)c(OC3COC3)nc2n1` [Compound 249, (R)-4-(2-methyl-4-((1-(2-methyl-3-(trifluoromethyl)phenyl)ethyl)amino)-7-(oxetan-3-yloxy)pyrido[2,3-d]pyrimidin-6-yl)tetrahydro-2H-thiopyran 1,1-dioxide], the IC50 was not above 1000 nM in test [1] (setting [3]); less than 500 nM in test [1] (setting [4]); less than 100 nM at SOS1 (setting [5]); less than 50 nM on SOS1 (setting [6]); 1000 to 10000 nM in test [2] (setting [7]).
As to `CCN1CCN(c2cc3c(N[C@H](C)c4cccc(C(F)F)c4F)nc(C)nc3nc2OC2CN(C)C2)CC1` [Compound 254, (R)-N-(1-(3-(difluoromethyl)-2-fluorophenyl)ethyl)-6-(4-ethylpiperazin-1-yl)-2-methyl-7-((1-methylazetidin-3-yl)oxy)pyrido[2,3-d]pyrimidin-4-amine], the half-maximal inhibitory concentration (IC50) in test [1] (setting [3]) was 1000 to 10000 nM; on SOS1 (setting [5]) it was less than 100 nM; on SOS1 (setting [6]), less than 50 nM; in test [2] (setting [7]) it was 1000 to 10000 nM.
As to `Cc1nc(N[C@H](C)c2cccc(C(F)F)c2F)c2cc(C3CCS(=N)(=O)CC3)c(OCCN(C)C)nc2n1` (stereo partly drawn) [Compound 250, (R)-4-(4-((1-(3-(difluoromethyl)-2-fluorophenyl)ethyl)amino)-7-(2-(dimethylamino)ethoxy)-2-methylpyrido[2,3-d]pyrimidin-6-yl)-1-iminohexahydro-116-thiopyran 1-oxide], the IC50 in test [1] (setting [3]) is 1000 to 10000 nM; on SOS1 (setting [5]), less than 100 nM; on SOS1 (setting [6]), less than 50 nM; in test [2] (setting [7]), more than 10000 nM.
For the compound `Cc1nc(N[C@H](C)c2cccc(C(F)(F)C(C)(C)O)c2F)c2cc(C3(C#N)CC3)c(N3CCN(C(C)C)CC3)nc2n1` [Compound 244, (R)-1-(4-((1-(3-(1,1-difluoro-2-hydroxy-2-methylpropyl)-2-fluorophenyl)ethyl)amino)-7-(4-isopropylpiperazin-1-yl)-2-methylpyrido[2,3-d]pyrimidin-6-yl)cyclopropane-1-carbonitrile], the IC50 is not above 1000 nM in test [1] (setting [3]); less than 500 nM in test [1] (setting [4]); less than 100 nM on SOS1 (setting [5]); less than 50 nM on SOS1 (setting [6]); not above 1000 nM in test [2] (setting [7]); less than 500 nM in test [2] (setting [8]).
As for `Cc1nc(N[C@H](C)c2cccc(C(F)F)c2F)c2cc(C3(C#N)CC3)c(O[C@H]3CCN(C)C3)nc2n1` [Compound 233, 1-(4-(((R)-1-(3-(difluoromethyl)-2-fluorophenyl)ethyl)amino)-2-methyl-7-(((S)-1-methylpyrrolidin-3-yl)oxy)pyrido [2,3-d]pyrimidin-6-yl)cyclopropane-1-carbonitrile], the IC50 in test [1] (setting [3]) was not above 1000 nM; in test [1] (setting [4]) it was less than 500 nM; on SOS1 (setting [5]), less than 100 nM; on SOS1 (setting [6]) it was less than 50 nM; in test [2] (setting [7]), not above 1000 nM; in test [2] (setting [8]), less than 500 nM.
`CCN1CCC(c2cc3c(N[C@H](C)c4cccc(C(F)F)c4F)nc(C)nc3nc2OC)CC1` [Compound 119, (R)-N-(1-(3-(difluoromethyl)-2-fluorophenyl)ethyl)-6-(1-ethylpiperidin-4-yl)-7-methoxy-2-methylpyrido[2,3-d]pyrimidin-4-amine]: the IC50 in test [1] (setting [3]) was not above 1000 nM; in test [1] (setting [4]), less than 500 nM; on SOS1 (setting [5]), less than 100 nM; at SOS1 (setting [6]) it was less than 50 nM; in test [2] (setting [7]) it was not above 1000 nM; in test [2] (setting [8]), less than 500 nM.
With `Cc1nc(N[C@H](C)c2cccc(C(F)(F)C3CCN(C(C)C)CC3)c2F)c2cc(C3CCN(C(C)C)CC3)c(Cl)nc2n1` [Compound 222, (R)-7-chloro-N-(1-(3-(difluoro(1-isopropylpiperidin-4-yl)methyl)-2-fluorophenyl)ethyl)-6-(1-isopropylpiperidin-4-yl)-2-methylpyrido[2,3-d]pyrimidin-4-amine], the IC50 in test [1] (setting [3]) was not above 1000 nM; in test [1] (setting [4]) it was less than 500 nM; on SOS1 (setting [5]), less than 100 nM; on SOS1 (setting [6]) it was less than 50 nM; in test [2] (setting [7]), not above 1000 nM; in test [2] (setting [8]), less than 500 nM.
Turning to `COCCOc1nc2nc(C)nc(N[C@H](C)c3cccc(C(F)F)c3F)c2cc1N1CCN(C(C)C)CC1` [Compound 360, (R)-N-(1-(3-(difluoromethyl)-2-fluorophenyl)ethyl)-6-(4-isopropylpiperazin-1-yl)-7-(2-methoxyethoxy)-2-methylpyrido [2,3-d]pyrimidin-4-amine], the IC50 is not above 1000 nM in test [1] (setting [3]); less than 500 nM in test [1] (setting [4]); less than 100 nM on SOS1 (setting [5]); less than 50 nM on SOS1 (setting [6]); not above 1000 nM in test [2] (setting [7]); less than 500 nM in test [2] (setting [8]).
